Test results: patent publication US8104331B2, “Method and device to extract components contained in a fluid” (Noab Biodiscoveries Inc., priority 2006, dated 2012)

Assays:
[1] = Conventional plasma sampling and analysis for pharmacokinetics after i.v. bolus diazepam; conditions: rat; for AUMC0-inf / AUMC0-tlast: metabolite, i.v. bolus 0.5 mg/kg diazepam, noncompartmental; for AUMC: 2-compartment analysis
Protocol: (§1) Animal Experiments: Male Sprague-Dawley rats (Charles River Labs, St. Constant, PQ) with an average weight of 300 g are acclimatized to their new environment for a minimum of 5 days prior to surgery. […] The catheters are plugged with removable metal plugs at the free end and then exteriorized by threading them under the skin and through a small incision at the nape of the neck. Animals are allowed to recover overnight prior to dosing. […] In vivo mouse experiments are conducted with conscious male Swiss Webster mice implanted with a carotid artery catheter. All procedures followed have been reviewed by the NoAb BioDiscoveries Inc. animal care committee and were performed in accordance with the principles of the Canadian Council on Animal Care (CCAC).
(§2) For each time point (5, 15, 30, 45, 60, 75, 120, 180, 240 and 360 min), the probes are in place for about two (2) minutes before the stated analysis time and blood draws are performed immediately after removing the probes. After the two (2) minute extraction time, the probes are removed, rinsed with water, and stored at −20° C. until the next day, when analysis is performed. […] For SPME calibration, rat whole blood is spiked with appropriate amounts of benzodiazepines and incubated with 10% CO2 atmosphere. The analytical range is 3-750 ng/mL.
Conventional Plasma Sampling and Analysis: In addition to SPME sampling, 0.2 mL of blood is withdrawn from the interface at each time point. Plasma is isolated by centrifugation at 2500 rpm for 10 minutes and frozen at −20° C. in 2 mL cryovials (Wheaton Science Products, Millville, N.J.) until analysis. For analysis, 0.05 mL of plasma is mixed with 0.25 mL acetonitrile containing 25 ng/mL lorazepam as internal standard in conical centrifuge vials. After vortex mixing (2400 rpm, 5 minutes) and centrifugation (14000 rpm, 7 minutes), 0.2 mL of the supernatant is transferred to a 96-well plate and evaporated to dryness under flowing nitrogen. The residue is dissolved in 0.1 mL acetonitrile/water (75:25) on a shaking bed (150 rpm). Twenty μL is injected for analysis using the same chromatographic conditions as for the analysis of SPME probes. The linear range is 0.1-1000 ng/mL.
(§3) Areas under the plasma concentration versus time curves (AUCs) represent the areas under the curve from the time of dosing and extrapolated to infinity. […] The total body clearance (CL) is estimated as: Dose/AUC. Mean residence times (MRT) are calculated as: AUMC/AUC, where AUMC denotes the area under the first moment curve. The steady-state volume of distribution (Vss) is calculated as: CL*MRT.
(§4) AUCs are calculated by the linear/log-linear trapezoidal rule. AUCs represent the areas under the curve from the time of dosing: (1) to the time (tlast) of the last measurable concentration, Clast (AUC0-tlast) and, (2) extrapolated to infinity (AUC0-inf). AUC0-inf is estimated by the addition of AUC0-tlast and Clast/k, where k (or λz) represents the terminal elimination rate constant. K is estimated by weighted (1/Y^2) regression analysis of at least 4 time points from the terminal (log-linear) portion of the concentration versus time curve.
For validation of the in vivo sampling method taught by the applicant's teachings, blood is sampled after each probe extraction, and plasma is isolated by centrifugation.

[2] = In vivo SPME sampling of whole blood for pharmacokinetics after i.v. bolus diazepam; conditions: rat; for AUMC0-inf / AUMC0-tlast: metabolite, SPME (blood, equilibrium calibration), i.v. bolus 0.5 mg/kg diazepam, noncompartmental; for AUMC: SPME/blood, 2-compartment analysis
Protocol: as §1
A device to extract components is attached to the carotid artery catheter prior to dosing each rat or mouse. To insert the probes, the tip of the SPME probe needle is used to pierce the septum of the device. The length of the fiber or wire of the probe is chosen so that the coated wire is completely exposed to the blood flow when the plunger is fully depressed. Before use, the SPME probe is sterilized in an autoclave at 121° C. and 15 psi for about 30 minutes. For validation purposes, blood draws are taken from the same interface after each sampling with SPME. All the probes are for single use.
as §2, §3, §4
In vivo experiments are conducted with conscious male Sprague-Dawley rats implanted with jugular vein and carotid artery catheters. The catheters are plugged and exteriorized at the nape of the neck. Prior to dosing, the opening of the device is connected to the carotid artery catheter. The channel of the device is either connected to the jugular vein catheter or is connected to a syringe pump. Connecting the device to the jugular vein catheter allowed for automatic return of the arterial blood, using the pumping action of the heart of the animal. Connecting the device to a syringe allows for precise control of the blood flow rate through the device. The device and the associated tubing are kept warm at 38° C.
At each sampling time point, a sterile SPME device is placed through the septum into the interface so that only the coated portion of the fiber is exposed to the flowing blood. Blood flow through the device is either allowed to run freely via recirculation to the jugular vein or is induced by the push/pull action of a syringe attached to the channel.

| SMILES | AUMC0-inf [1] [h^2*ng/mL] | AUMC0-tlast [1] [h^2*ng/mL] | AUMC0-inf [2] [h^2*ng/mL] | AUMC0-tlast [2] [h^2*ng/mL] | AUMC ([1]; equilibrium calibration study, diazepam 0.5 mg/kg i.v. bolus) [h^2*ng/mL] | AUMC ([1]; kinetic calibration study, diazepam 1 mg/kg i.v. bolus) [h^2*ng/mL] | AUMC ([2]; equilibrium calibration, diazepam 0.5 mg/kg i.v. bolus) [h^2*ng/mL] | AUMC ([2]; kinetic calibration, diazepam 1 mg/kg i.v. bolus) [h^2*ng/mL] |
| --- | --- | --- | --- | --- | --- | --- | --- | --- |
| O=C1CN=C(c2ccccc2)c2cc(Cl)ccc2N1 [Nordiazepam, nordiazepam] | 16.5 | 6.38 | 50.0 | 7.86 | – | – | – | – |
| O=C1Nc2ccc(Cl)cc2C(c2ccccc2)=NC1O (stereo not drawn) [Oxazepam, oxazepam] | 293 | 176 | 834 | 278 | – | – | – | – |
| CN1C(=O)CN=C(c2ccccc2)c2cc(Cl)ccc21 [diazepam] | – | – | – | – | 319 | 1000 | 527 | 741 |
